Where a name gives a salt, the structure may show the parent alone.

Among the data in patent US20240239785A1, “SUBSTITUTED 2-(2,6-DIOXOPIPERIDIN-3-YL)-5-(1-PIPERIDIN-4-YL)ISOINDOLINE-1,3-DIONE DERIVATIVES AND USES THEREOF” (Neomorph, Inc., priority 2021, published 2024) are DC50 and Dmax values, retold here.

The assay has as its target T1, IKZF2 (Homo sapiens, UniProt Q96SW2+Q9UKS7).
T1 construct: endogenous in cells; host or cells: MOLT4 (CRISPR/Cas9 HiBit knock-in at the IKZF2 locus)
In words: MOLT4 IKZF2 HiBit assay. The settings on record: MOLT4 IKZF2 HiBit cells; for DC50: 6 hours incubation, 10-point dose response from 30 μM; for Dmax at 30 µM: MOLT-4, 6 hr (Dmax), read-out: % reduction of IKZF2 @ 30 μM (6 hr). The class given is cell-based. The protocol: MOLT4 IKZF2 HiBit Assay Protocol:
This protocol used MOLT4 cells that were engineered using CRISPR/Cas9-mediated genomic insertion of HiBit, tagged to the N terminus of the IKZF2 coding sequence. Day 1. A 10-point dose response was created starting from 30 μM down to InM using a Tecan D300e. Next was added 8,000 cells/well of the MOLT4 IKZF2 HiBit cells to the compound plate. The compounds plate was incubated for 6 hours. Day 2. Nano-Glo HiBit Lytic Buffer/Nano-Glo HiBit Lytic substrate/LgBit Protein mix was added to each well and the compound plate was incubated for 15 minutes. Finally, luminescence signal was read using a BMG Labtech PHERAstar FSX. Data was normalized to DMSO and graphed using GraphPad Prism to determine the concentration points at which 50% of HiBiT-Helios degradation was achieved by each compound. The extent of degradation (range of luminescence) from the highest to lowest concentration points was calculated to determine Dmax.

T1 sequence (Q9UKS7 whole entry): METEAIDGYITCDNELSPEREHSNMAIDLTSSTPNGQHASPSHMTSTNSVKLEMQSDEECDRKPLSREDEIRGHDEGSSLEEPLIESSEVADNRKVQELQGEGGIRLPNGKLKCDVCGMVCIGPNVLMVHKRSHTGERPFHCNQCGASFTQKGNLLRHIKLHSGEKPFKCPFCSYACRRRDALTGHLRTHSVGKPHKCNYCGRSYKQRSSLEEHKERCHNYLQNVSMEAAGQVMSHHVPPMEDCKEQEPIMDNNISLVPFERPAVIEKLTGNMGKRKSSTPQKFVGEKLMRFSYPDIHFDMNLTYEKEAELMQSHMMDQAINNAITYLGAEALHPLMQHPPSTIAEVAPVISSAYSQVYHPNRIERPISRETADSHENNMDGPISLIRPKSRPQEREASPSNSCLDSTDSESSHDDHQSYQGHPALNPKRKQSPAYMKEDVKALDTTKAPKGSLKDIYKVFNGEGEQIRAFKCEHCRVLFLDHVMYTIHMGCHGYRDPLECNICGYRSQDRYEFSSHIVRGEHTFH
T1 sequence (Q96SW2 whole entry): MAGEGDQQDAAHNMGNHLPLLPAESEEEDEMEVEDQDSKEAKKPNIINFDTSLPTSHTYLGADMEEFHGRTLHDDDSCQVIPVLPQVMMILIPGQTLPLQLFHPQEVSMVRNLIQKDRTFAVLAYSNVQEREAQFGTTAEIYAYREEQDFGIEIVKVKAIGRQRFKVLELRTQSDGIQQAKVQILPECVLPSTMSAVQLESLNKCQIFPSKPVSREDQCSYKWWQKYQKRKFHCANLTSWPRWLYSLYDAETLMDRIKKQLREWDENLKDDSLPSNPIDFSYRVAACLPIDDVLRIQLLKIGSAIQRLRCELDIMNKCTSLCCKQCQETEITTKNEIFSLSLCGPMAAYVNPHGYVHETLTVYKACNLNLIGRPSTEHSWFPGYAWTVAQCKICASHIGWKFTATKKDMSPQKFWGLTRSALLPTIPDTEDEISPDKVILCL
T1 sequence (Q16531 whole entry partner): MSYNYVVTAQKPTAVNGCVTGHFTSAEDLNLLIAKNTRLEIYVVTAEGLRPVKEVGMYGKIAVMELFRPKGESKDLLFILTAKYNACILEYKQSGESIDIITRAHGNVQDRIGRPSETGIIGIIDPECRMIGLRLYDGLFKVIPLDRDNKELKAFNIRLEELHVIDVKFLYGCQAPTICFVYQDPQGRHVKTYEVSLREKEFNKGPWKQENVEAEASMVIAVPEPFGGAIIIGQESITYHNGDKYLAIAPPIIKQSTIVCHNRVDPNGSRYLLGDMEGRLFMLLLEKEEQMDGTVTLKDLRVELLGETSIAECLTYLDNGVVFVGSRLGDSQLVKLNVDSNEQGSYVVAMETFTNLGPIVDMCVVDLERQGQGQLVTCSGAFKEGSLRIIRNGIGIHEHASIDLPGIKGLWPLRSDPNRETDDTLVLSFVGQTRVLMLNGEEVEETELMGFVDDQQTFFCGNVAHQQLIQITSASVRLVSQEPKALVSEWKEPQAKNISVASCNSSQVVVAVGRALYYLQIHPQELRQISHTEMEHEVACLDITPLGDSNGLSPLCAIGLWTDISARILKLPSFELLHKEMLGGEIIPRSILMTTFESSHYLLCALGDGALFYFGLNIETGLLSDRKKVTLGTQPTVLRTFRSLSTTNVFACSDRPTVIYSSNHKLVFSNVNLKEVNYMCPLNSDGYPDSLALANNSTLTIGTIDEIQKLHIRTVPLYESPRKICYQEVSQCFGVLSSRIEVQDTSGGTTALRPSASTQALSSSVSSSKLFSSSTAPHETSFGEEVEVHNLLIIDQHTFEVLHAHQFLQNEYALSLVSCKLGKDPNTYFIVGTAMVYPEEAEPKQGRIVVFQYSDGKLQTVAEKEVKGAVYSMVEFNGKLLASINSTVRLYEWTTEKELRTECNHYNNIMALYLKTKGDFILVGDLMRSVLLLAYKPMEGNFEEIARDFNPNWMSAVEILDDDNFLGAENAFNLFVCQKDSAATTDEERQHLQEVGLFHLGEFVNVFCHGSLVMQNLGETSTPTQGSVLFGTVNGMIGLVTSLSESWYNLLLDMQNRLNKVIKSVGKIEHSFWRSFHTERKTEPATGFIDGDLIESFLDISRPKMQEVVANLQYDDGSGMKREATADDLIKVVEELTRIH

With `Cn1ncc2ccc(CN3CCC(O)(c4ccc5c(c4)C(=O)N(C4CCC(=O)NC4=O)C5=O)CC3)cc21` (centres unmarked) [Compound 140, 2-(2,6-dioxopiperidin-3-yl)-5-{4-hydroxy-1-[(1-methyl-1H-indazol-6-yl)methyl]piperidin-4-yl}-2,3-dihydro-1H-isoindole-1,3-dione, formic acid salt], the DC50 came out at 3 nM and the Dmax at 30 µM worked out at 87%.
The like results for `O=C1CCC(N2C(=O)c3ccc(C4(O)CCN(Cc5ccccn5)CC4)cc3C2=O)C(=O)N1` (centres unmarked) [Compound 68, 2-(2,6-dioxopiperidin-3-yl)-5-{4-hydroxy-1-[(pyridin-2-yl)methyl]piperidin-4-yl}-2,3-dihydro-1H-isoindole-1,3-dione, HCl salt] were, in that order, 21 nM and 71%.
For `CC(c1ccccc1)N1CCC(O)(c2ccc3c(c2)C(=O)N(C2CCC(=O)NC2=O)C3=O)CC1` (centres unmarked) [Compound 35, 2-(2,6-dioxopiperidin-3-yl)-5-[4-hydroxy-1-(1-phenylethyl)piperidin-4-yl]-2,3-dihydro-1H-isoindole-1,3-dione, HCl salt], the DC50 was found to be 4 nM and the Dmax at 30 µM worked out at 84%.
The like results for `O=C1CCC(N2C(=O)c3ccc(C4(O)CCN(Cc5ccc6ncn(-c7ccccn7)c(=O)c6c5)CC4)cc3C2=O)C(=O)N1` (centres unmarked) [Compound 98, 2-(2,6-dioxopiperidin-3-yl)-5-(4-hydroxy-1-((4-oxo-3-(pyridin-2-yl)-3,4-dihydroquinazolin-6-yl)methyl)piperidin-4-yl)isoindoline-1,3-dione] were, in that order, 1.5 nM and 72%.
Taken in the same sequence, the figures for `COCc1ccc(CN2CCC(O)(c3ccc4c(c3)C(=O)N(C3CCC(=O)NC3=O)C4=O)CC2)cc1` (centres unmarked) [Compound 61, 2-(2,6-dioxopiperidin-3-yl)-5-(4-hydroxy-1-{[4-(methoxymethyl)phenyl]methyl}piperidin-4-yl)-2,3-dihydro-1H-isoindole-1,3-dione, HCl salt] were 5 nM and 83%.
The like results for `O=C1CCC(N2C(=O)c3ccc(C4(O)CCN(Cc5coc(-c6ccccc6)n5)CC4)cc3C2=O)C(=O)N1` (centres unmarked) [Compound 91, 2-(2,6-dioxopiperidin-3-yl)-5-{4-hydroxy-1-[(2-phenyl-1,3-oxazol-4-yl)methyl]piperidin-4-yl}-2,3-dihydro-1H-isoindole-1,3-dione, HCl salt] were, in that order, 21 nM and 60%.
For the molecule `O=C1CCC(N2C(=O)c3ccc(C4CCN(Cc5ccc6ncn(-c7ccccn7)c(=O)c6c5)CC4)cc3C2=O)C(=O)N1` (centres unmarked) [Compound 97, 2-(2,6-dioxopiperidin-3-yl)-5-(1-((4-oxo-3-(pyridin-2-yl)-3,4-dihydroquinazolin-6-yl)methyl)piperidin-4-yl)isoindoline-1,3-dione], the Dmax at 30 µM was 36%.
In the case of `O=C1CCC(N2C(=O)c3ccc(C4(O)CCN(CC(O)c5ccccc5)CC4)cc3C2=O)C(=O)N1` (centres unmarked) [Compound 149, 2-(2,6-dioxopiperidin-3-yl)-5-(4-hydroxy-1-(2-hydroxy-2-phenylethyl)piperidin-4-yl)isoindoline-1,3-dione], the DC50 is 22 nM and the Dmax at 30 µM stood at 76%.
Taken in the same sequence, the figures for `CCCN1CCC(O)(c2ccc3c(c2F)C(=O)N(C2CCC(=O)NC2=O)C3=O)CC1` (centres unmarked) [Compound 148, 2-(2,6-dioxopiperidin-3-yl)-4-fluoro-5-(4-hydroxy-1-propylpiperidin-4-yl)-2,3-dihydro-1H-isoindole-1,3-dione, HCl salt] were 30 nM and 73%.
The like results for `CCCN1CCC(O)(c2ccc3c(c2)C(=O)N(C2CCC(=O)NC2=O)C3=O)CC1` (centres unmarked) [Compound 146, 2-(2,6-dioxopiperidin-3-yl)-5-(4-hydroxy-1-propylpiperidin-4-yl)-2,3-dihydro-1H-isoindole-1,3-dione, HCl salt] were, in that order, 43 nM and 69%.
The like results for `O=C1CCC(N2C(=O)c3ccc(C4(O)CCN(Cc5ccc6[nH]ccc6c5)CC4)cc3C2=O)C(=O)N1` (centres unmarked) [Compound 144, 2-(2,6-dioxopiperidin-3-yl)-5-{4-hydroxy-1-[(1H-indol-5-yl)methyl]piperidin-4-yl}-2,3-dihydro-1H-isoindole-1,3-dione, formic acid salt] were, in that order, 16 nM and 88%.
As for `O=C1CCC(N2C(=O)c3ccc(C4(O)CCN(Cc5ccc6ncn(-c7cccnc7)c(=O)c6c5)CC4)cc3C2=O)C(=O)N1` (centres unmarked) [Compound 99, 2-(2,6-dioxopiperidin-3-yl)-5-(4-hydroxy-1-{[4-oxo-3-(pyridin-3-yl)-3,4-dihydroquinazolin-6-yl]methyl}piperidin-4-yl)-2,3-dihydro-1H-isoindole-1,3-dione, formic acid salt], the DC50 is 1 nM and the Dmax at 30 µM is 89%.
The like results for `O=C1CCC(N2C(=O)c3ccc(C4(O)CCN(Cc5ccc(-c6nccs6)cc5)CC4)cc3C2=O)C(=O)N1` (centres unmarked) [Compound 147, 2-(2,6-dioxopiperidin-3-yl)-5-(4-hydroxy-1-{[4-(1,3-thiazol-2-yl)phenyl]methyl}piperidin-4-yl)-2,3-dihydro-1H-isoindole-1,3-dione, HCl salt] were, in that order, 8 nM and 88%.
With `COC[C@H]1CC[C@H](CN2CCC(c3ccc4c(c3)C(=O)N(C3CCC(=O)NC3=O)C4=O)CC2)CC1` (stereo partly drawn) [Compound 85, trans-2-(2,6-dioxopiperidin-3-yl)-5-(1-((4-(methoxymethyl)cyclohexyl)methyl)piperidin-4-yl)isoindoline-1,3-dione formic acid], the Dmax at 30 µM was determined as 25%.
Regarding `Cn1ccc2cc(CN3CCC(O)(c4ccc5c(c4)C(=O)N(C4CCC(=O)NC4=O)C5=O)CC3)ccc21` (centres unmarked) [Compound 141, 2-(2,6-dioxopiperidin-3-yl)-5-{4-hydroxy-1-[(1-methyl-1H-indol-5-yl)methyl]piperidin-4-yl}-2,3-dihydro-1H-isoindole-1,3-dione, HCl salt], the DC50 stood at 11 nM and the Dmax at 30 µM came to 86%.
On to `COC[C@H]1CC[C@H](CN2CCC(O)(c3ccc4c(c3)C(=O)N(C3CCC(=O)NC3=O)C4=O)CC2)CC1` (stereo partly drawn) [Compound 84, trans-2-(2,6-dioxopiperidin-3-yl)-5-(4-hydroxy-1-((4-(methoxymethyl)cyclohexyl)methyl)piperidin-4-yl)isoindoline-1,3-dione], for which the DC50 is 8.3 nM and the Dmax at 30 µM came out at 60%.
Consider `O=C1CCC(N2C(=O)c3ccc(C4(O)CCN(Cc5cccnc5)CC4)cc3C2=O)C(=O)N1` (centres unmarked) [Compound 69, 2-(2,6-dioxopiperidin-3-yl)-5-{4-hydroxy-1-[(pyridin-3-yl)methyl]piperidin-4-yl}-2,3-dihydro-1H-isoindole-1,3-dione, formic acid salt], for which the DC50 came to 39 nM and the Dmax at 30 µM worked out at 72%.
The like results for `Cn1ncc2cc(CN3CCC(O)(c4ccc5c(c4)C(=O)N(C4CCC(=O)NC4=O)C5=O)CC3)ccc21` (centres unmarked) [Compound 145, 2-(2,6-dioxopiperidin-3-yl)-5-{4-hydroxy-1-[(1-methyl-1H-indazol-5-yl)methyl]piperidin-4-yl}-2,3-dihydro-1H-isoindole-1,3-dione, formic acid salt] were, in that order, 4 nM and 83%.
The like results for `Cn1c(CN2CCC(O)(c3ccc4c(c3)C(=O)N(C3CCC(=O)NC3=O)C4=O)CC2)cc2ccccc21` (centres unmarked) [Compound 142, 2-(2,6-dioxopiperidin-3-yl)-5-{4-hydroxy-1-[(1-methyl-1H-indol-2-yl)methyl]piperidin-4-yl}-2,3-dihydro-1H-isoindole-1,3-dione, formic acid salt] were, in that order, 13 nM and 82%.
In the case of `O=C1CCC(N2C(=O)c3ccc(C4(O)CCN(Cc5ccn(-c6ccccc6)n5)CC4)cc3C2=O)C(=O)N1` (centres unmarked) [Compound 94, 2-(2,6-dioxopiperidin-3-yl)-5-{4-hydroxy-1-[(1-phenyl-1H-pyrazol-3-yl)methyl]piperidin-4-yl}-2,3-dihydro-1H-isoindole-1,3-dione, HCl salt], the DC50 was determined as 8 nM and the Dmax at 30 µM was 79%.
Taken in the same sequence, the figures for `COc1ccc(CN2CCC(O)(c3ccc4c(c3)C(=O)N(C3CCC(=O)NC3=O)C4=O)CC2)cn1` (centres unmarked) [Compound 72, 2-(2,6-dioxopiperidin-3-yl)-5-{4-hydroxy-1-[(6-methoxypyridin-3-yl)methyl]piperidin-4-yl}-2,3-dihydro-1H-isoindole-1,3-dione, HCl salt] were 1 nM and 80%.
The like results for `N#Cc1ccc(CN2CCC(O)(c3ccc4c(c3)C(=O)N(C3CCC(=O)NC3=O)C4=O)CC2)cc1` (centres unmarked) [Compound 57, 4-({4-[2-(2,6-dioxopiperidin-3-yl)-1,3-dioxo-2,3-dihydro-1H-isoindol-5-yl]-4-hydroxypiperidin-1-yl}methyl)benzonitrile] were, in that order, 6 nM and 81%.
Regarding `CC(c1ccc(C(F)(F)F)cc1)N1CCC(O)(c2ccc3c(c2)C(=O)N(C2CCC(=O)NC2=O)C3=O)CC1` (centres unmarked) [Compound 143, 2-(2,6-dioxopiperidin-3-yl)-5-(4-hydroxy-1-{1-[4-(trifluoromethyl)phenyl]ethyl}piperidin-4-yl)-2,3-dihydro-1H-isoindole-1,3-dione, HCl salt], the DC50 was found to be 6 nM and the Dmax at 30 µM was determined as 84%.
